The target of this test is T1, GST-RIPK1 (recombinant GST-RIPK1 kinase domain (residues 1-327)) (Homo sapiens, UniProt Q13546).
T1 construct: recombinant GST-RIPK1 kinase domain (residues 1-327) enzyme produced from baculovirus-transfected Sf21 cells; host or cells: baculovirus-transfected Sf21 insect cells
T1 sequence (Q13546 1-327): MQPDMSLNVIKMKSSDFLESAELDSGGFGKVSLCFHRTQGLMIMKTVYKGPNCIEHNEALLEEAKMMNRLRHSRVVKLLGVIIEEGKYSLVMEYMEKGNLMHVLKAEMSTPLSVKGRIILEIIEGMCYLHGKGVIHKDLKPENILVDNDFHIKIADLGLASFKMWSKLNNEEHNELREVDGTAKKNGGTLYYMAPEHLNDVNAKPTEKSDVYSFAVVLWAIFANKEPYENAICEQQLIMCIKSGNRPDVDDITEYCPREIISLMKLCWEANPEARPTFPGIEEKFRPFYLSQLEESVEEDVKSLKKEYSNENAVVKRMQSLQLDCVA
In words: RIPK1-ADP-Glo Enzymatic Assay. It is filed as biochemical. The note with it: ten-point titration, top compound concentration of 100000 nM; 25 nM GST-RIPK1, 300 μM ATP, 3 μM dephosphorylated-MBP; 30 min pre-incubation, 150 min reaction. Put shortly: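 GST-RIPK1 kinase domain (residues 1-327, Sf21-expressed), 25 nM, preincubated 30 min with compound, then reacted 150 min with 300 μM ATP and 3 μM dephosphorylated MBP in pH 7.3 Hepes buffer, 1% DMSO. ADP measured by ADP-Glo luminescence; EC50 from ten-point titration (top 100000 nM), four-parameter fit.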
Background: ADP-Glo turns the ADP formed in a reaction into a luminescent signal.

Experimental findings from US20250154173A1 (Merck Sharp & Dohme LLC, priority 2023, published 2025) are described below.

What is called EC50 is the concentration giving half of the maximal effect. In the case of `Cc1cc2c(O[C@H]3C[C@@]4(C3)O[C@@H]3CC[C@@H](c5cc(F)cc(F)c5)N3C4=O)ncnc2o1` [Example 9.32, (1r,3R,5′S,7a′R)-5′-(3,5-difluorophenyl)-3-[(6-methylfuro[2,3-d]pyrimidin-4-yl)oxy]tetrahydro-3′H-spiro[cyclobutane-1,2′-pyrrolo[2,1-b][1,3]oxazol]-3′-one], the EC50 came to 8 nM.
The figure for `Cc1cc2c(O[C@H]3C[C@@]4(C3)O[C@@H]3CC[C@@H](c5cc(F)cc(F)c5)N3C4=O)ncnc2s1` [Example 9.33, (1r,3R,5′S,7a′R)-5′-(3,5-difluorophenyl)-3-[(6-methylthieno[2,3-d]pyrimidin-4-yl)oxy]tetrahydro-3′H-spiro[cyclobutane-1,2′-pyrrolo[2,1-b][1,3]oxazol]-3′-one] is 8 nM.
Turning to `O=C1N2[C@@H](CC[C@H]2c2ccc(F)cc2)O[C@]12C[C@H](Oc1nccc3nccn13)C2` [Example 9.34, (1r,3R,5′S,7a′R)-5′-(4-fluorophenyl)-3-[(imidazo[1,2-c]pyrimidin-5-yl)oxy]tetrahydro-3′H-spiro[cyclobutane-1,2′-pyrrolo[2,1-b][1,3]oxazol]-3′-one], the EC50 worked out at 19 nM.
For `O=C1N2[C@@H](CC[C@H]2c2cc(F)cc(F)c2)O[C@]12C[C@H](Oc1cccnc1Cl)C2` [Example 9.36, (5′S,7a′R)-3-[(2-chloropyridin-3-yl)oxy]-5′-(3,5-difluorophenyl)tetrahydro-3′H-spiro[cyclobutane-1,2′-pyrrolo[2,1-b][1,3]oxazol]-3′-one], the EC50 came to 16 nM.
Consider `O=C1N2[C@@H](CC[C@H]2c2cc(F)cc(F)c2)OC12CC(Oc1ccc(F)cn1)C2` (stereo partly drawn) [Example 9.37, (5′S,7a′R)-5′-(3,5-difluorophenyl)-3-[(5-fluoropyridin-2-yl)oxy]tetrahydro-3′H-spiro[cyclobutane-1,2′-pyrrolo[2,1-b][1,3]oxazol]-3′-one], for which the EC50 turned out to be 19 nM.
On to `O=C1N2[C@@H](CC[C@H]2c2cc(F)cc(F)c2)OC12CC(Oc1ncccc1F)C2` (stereo partly drawn) [Example 9.38, (5′S,7a′R)-5′-(3,5-difluorophenyl)-3-[(3-fluoropyridin-2-yl)oxy]tetrahydro-3′H-spiro[cyclobutane-1,2′-pyrrolo[2,1-b][1,3]oxazol]-3′-one], for which the EC50 stood at 29 nM.
Turning to `O=C1N2[C@@H](CC[C@H]2c2cc(F)cc(F)c2)OC12CC(Oc1ncccc1F)C2` (stereo partly drawn) [Example 9.39, (5′S,7a′R)-5′-(3,5-difluorophenyl)-3-[(3-fluoropyridin-2-yl)oxy]tetrahydro-3′H-spiro[cyclobutane-1,2′-pyrrolo[2,1-b][1,3]oxazol]-3′-one], the EC50 was 47 nM.
Under `N#Cc1cc(O[C@H]2C[C@@]3(C2)O[C@@H]2CC[C@@H](c4cnccn4)N2C3=O)ncn1` [Example 9.42, 6-(((5′S,7a′R)-3′-oxo-5′-(pyrazin-2-yl)tetrahydro-3′H-spiro[cyclobutane-1,2′-pyrrolo[2,1-b]oxazol]-3-yl)oxy)pyrimidine-4-carbonitrile] stands 21 nM; under `N#Cc1cc(O[C@H]2C[C@]3(C2)O[C@@H]2CC[C@@H](c4ccccc4F)N2C3=O)ncn1` [Example 9.43, 6-{[(5′S,7a′R)-5′-(2-fluorophenyl)-3′-oxotetrahydro-3′H-spiro[cyclobutane-1,2′-pyrrolo[2,1-b][1,3]oxazol]-3-yl]oxy}pyrimidine-4-carbonitrile], 353 nM; under `N#Cc1cc(F)cc([C@@H]2CC[C@H]3O[C@]4(C[C@H](Oc5cc(C#N)ncn5)C4)C(=O)N32)c1` [Example 9.44, 6-(((5′S,7a′R)-5′-(3-cyano-5-fluorophenyl)-3′-oxotetrahydro-3′H-spiro[cyclobutane-1,2′-pyrrolo[2,1-b]oxazol]-3-yl)oxy)pyrimidine-4-carbonitrile], 28 nM.
In the case of `O=C1N2[C@@H](CC[C@H]2c2cnccn2)O[C@]12C[C@@H](Oc1ncnn3cccc13)C2` [Example 9.45, (1s,3S,5′S,7a′R)-5′-(pyrazin-2-yl)-3-(pyrrolo[2,1-f][1,2,4]triazin-4-yloxy)tetrahydro-3′H-spiro[cyclobutane-1,2′-pyrrolo[2,1-b]oxazol]-3′-one], the EC50 came out at 233 nM.
`O=C1N2[C@@H](CC[C@H]2c2cnccn2)O[C@]12C[C@H](Oc1ncnn3cccc13)C2` [Example 9.46, (1r,3R,5′S,7a′R)-5′-(pyrazin-2-yl)-3-(pyrrolo[2,1-f][1,2,4]triazin-4-yloxy)tetrahydro-3′H-spiro[cyclobutane-1,2′-pyrrolo[2,1-b]oxazol]-3′-one]: the EC50 stood at 15 nM.
`N#Cc1cc(O[C@H]2C[C@@]3(C2)O[C@@H]2CC[C@@H](c4ccc(F)cn4)N2C3=O)ncn1` [Example 9.47, 6-{[(5′S,7a′R)-5′-(5-fluoropyridin-2-yl)-3′-oxotetrahydro-3′H-spiro[cyclobutane-1,2′-pyrrolo[2,1-b][1,3]oxazol]-3-yl]oxy}pyrimidine-4-carbonitrile]: the EC50 was 24 nM.
`O=C1N2[C@@H](CC[C@H]2c2ccc(F)cc2)O[C@]12C[C@H](Oc1cncc(F)c1)C2` [Example 9.48, (1r,3R,5′S,7a′R)-5′-(4-fluorophenyl)-3-[(5-fluoropyridin-3-yl)oxy]tetrahydro-3′H-spiro[cyclobutane-1,2′-pyrrolo[2,1-b][1,3]oxazol]-3′-one]: the EC50 was 20 nM.
Under `N#Cc1cncc(O[C@H]2C[C@@]3(C2)O[C@@H]2CC[C@@H](c4ccc(F)cc4)N2C3=O)c1` [Example 9.49, 5-{[(1r,3R,5′S,7a′R)-5′-(4-fluorophenyl)-3′-oxotetrahydro-3′H-spiro[cyclobutane-1,2′-pyrrolo[2,1-b][1,3]oxazol]-3-yl]oxy}pyridine-3-carbonitrile] stands 15 nM.
Consider `N#Cc1cc(O[C@H]2C[C@@]3(C2)O[C@H]2CC[C@H](c4cnccn4)N2C3=O)ncn1` [Example 9.50, 6-(((5′R,7a′S)-3′-oxo-5′-(pyrazin-2-yl)tetrahydro-3′H-spiro[cyclobutane-1,2′-pyrrolo[2,1-b]oxazol]-3-yl)oxy)pyrimidine-4-carbonitrile], for which the EC50 amounted to 330 nM.
On to `O=C1N2[C@H](CC[C@H]2c2cnccn2)O[C@]12C[C@@H](Oc1ncnn3cccc13)C2` [Example 9.51, (1s,3R,5′R,7a′S)-5′-(pyrazin-2-yl)-3-(pyrrolo[2,1-f][1,2,4]triazin-4-yloxy)tetrahydro-3′H-spiro[cyclobutane-1,2′-pyrrolo[2,1-b]oxazol]-3′-one], for which the EC50 was determined as 56 nM.
With `Cc1nnc(-c2cc(O[C@H]3C[C@@]4(C3)O[C@@H]3CC[C@@H](c5cc(F)cc(F)c5)N3C4=O)ncn2)o1` [Example 9.53, (5′S,7a′R)-5′-(3,5-difluorophenyl)-3-((6-(5-methyl-1,3,4-oxadiazol-2-yl)pyrimidin-4-yl)oxy)tetrahydro-3′H-spiro[cyclobutane-1,2′-pyrrolo[2,1-b]oxazol]-3′-one], the EC50 worked out at 50 nM.
As to `O=C1N2[C@@H](CC[C@H]2c2cc(F)cc(F)c2)O[C@]12C[C@H](Oc1cc(-c3cnn(C(F)F)c3)ncn1)C2` [Example 9.54, (5′S,7a′R)-3-((6-(1-(difluoromethyl)-1H-pyrazol-4-yl)pyrimidin-4-yl)oxy)-5′-(3,5-difluorophenyl)tetrahydro-3′H-spiro[cyclobutane-1,2′-pyrrolo[2,1-b]oxazol]-3′-one], the EC50 came to 24 nM.
Under `Cn1nccc1-c1cc(O[C@H]2C[C@@]3(C2)O[C@@H]2CC[C@@H](c4cc(F)cc(F)c4)N2C3=O)ncn1` [Example 9.55, (5′S,7a′R)-5′-(3,5-difluorophenyl)-3-((6-(1-methyl-1H-pyrazol-5-yl)pyrimidin-4-yl)oxy)tetrahydro-3′H-spiro[cyclobutane-1,2′-pyrrolo[2,1-b]oxazol]-3′-one] stands 13 nM; under `O=C1N2[C@@H](CC[C@H]2c2cc(F)cc(F)c2)O[C@]12C[C@H](Oc1cc(-n3cc(C(F)F)cn3)ncn1)C2` [Example 9.56, (5′S,7a′R)-3-((6-(4-(difluoromethyl)-1H-pyrazol-1-yl)pyrimidin-4-yl)oxy)-5′-(3,5-difluorophenyl)tetrahydro-3′H-spiro[cyclobutane-1,2′-pyrrolo[2,1-b]oxazol]-3′-one], 18 nM; under `N#Cc1ccnc(O[C@H]2C[C@@]3(C2)O[C@@H]2CC[C@@H](c4cc(F)cc(F)c4)N2C3=O)n1` [Example 9.57, 2-(((1r,3R,5′S,7a′R)-5′-(3,5-difluorophenyl)-3′-oxotetrahydro-3′H-spiro[cyclobutane-1,2′-pyrrolo[2,1-b]oxazol]-3-yl)oxy)pyrimidine-4-carbonitrile], 69 nM.
With `O=C1N2[C@@H](CC[C@H]2c2ccc(F)cc2)OC12CC(Oc1nccn3ccnc13)C2` (stereo partly drawn) [Example 9.58, (5′S,7a′R)-5′-(4-fluorophenyl)-3-[(imidazo[1,2-a]pyrazin-8-yl)oxy]tetrahydro-3′H-spiro[cyclobutane-1,2′-pyrrolo[2,1-b][1,3]oxazol]-3′-one], the EC50 worked out at 467 nM.
The figure for `O=C1N2[C@@H](CC[C@H]2c2ccc(F)cc2)OC12CC(Oc1nccn3ncnc13)C2` (stereo partly drawn) [Example 9.59, (5′S,7a′R)-5′-(4-fluorophenyl)-3-[([1,2,4]triazolo[1,5-a]pyrazin-8-yl)oxy]tetrahydro-3′H-spiro[cyclobutane-1,2′-pyrrolo[2,1-b][1,3]oxazol]-3′-one] is 71.9 nM.
